From patent publication US20240246964A1 (Arbutus Biopharma Corporation, priority 2021, published 2024)

Legend:
[1] = molecular target: PD-L1 His protein / PD-1 Fc protein (Homo sapiens (Human), UniProt Q9NZQ7); test: HTRF Assay (PD-1/PD-L1 interaction); type: binding; settings: PD-L1 His 6 nM, PD-1 Fc 6 nM
human PD-L1 = human PD-L1 (Homo sapiens (Human), UniProt Q9NZQ7); test: T cell activation luciferase reporter cell culture system (T Cell Activation Assay); type: cell-based; settings: luciferase reporter assay; PD-L1 aAPC/CHO-K1 cells with PD-1 effector Jurkat T cells
human PD-L1, sequence (Q9NZQ7 19-290): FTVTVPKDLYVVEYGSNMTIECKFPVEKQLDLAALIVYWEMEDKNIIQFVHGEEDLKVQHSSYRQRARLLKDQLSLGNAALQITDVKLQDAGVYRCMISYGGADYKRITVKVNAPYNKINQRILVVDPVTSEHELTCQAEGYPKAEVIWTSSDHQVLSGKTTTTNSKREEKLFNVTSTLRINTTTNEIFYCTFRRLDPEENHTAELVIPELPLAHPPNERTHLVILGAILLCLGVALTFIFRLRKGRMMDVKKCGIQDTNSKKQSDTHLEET

PD-L1 His protein / PD-1 Fc protein, sequence (Q9NZQ7 19-238): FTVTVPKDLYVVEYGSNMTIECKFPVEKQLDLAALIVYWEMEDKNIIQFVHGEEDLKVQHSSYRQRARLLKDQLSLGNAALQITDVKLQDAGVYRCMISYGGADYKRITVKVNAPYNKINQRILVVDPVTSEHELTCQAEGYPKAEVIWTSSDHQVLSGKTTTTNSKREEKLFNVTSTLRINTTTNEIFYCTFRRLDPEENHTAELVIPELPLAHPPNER

Compound | IC50 [1] [µM] | EC50 (human PD-L1) [µM]
CNCc1ccc(-c2cccc(-c3ccnc(-c4ccc(CNCCC(=O)O)c(OC)c4)c3Cl)c2Cl)nc1OC [Compound 221, 3-((4-(3-chloro-4-(2-chloro-3-(6-methoxy-5-((methylamino)methyl)pyridin-2-yl)phenyl)pyridin-2-yl)-2-methoxybenzyl)amino)propanoic acid] | 0.0002 | 0.0644
COc1nc(-c2ccnc(-c3cccc4c3CC[C@@H]4Nc3nc(OC)c(CNC[C@@H]4CCC(=O)N4)cc3C(F)(F)F)c2Cl)ccc1CNC[C@@H]1CCC(=O)N1 [Compound 223, (S)-5-((((3′-chloro-6-methoxy-2′-((S)-1-((6-methoxy-5-(((((S)-5-oxopyrrolidin-2-yl)methyl)amino)methyl)-3-(trifluoromethyl)pyridin-2-yl)amino)-2,3-dihydro-1H-inden-4-yl)-[2,4′-bipyridin]-5-yl)methyl)amino)methyl)pyrrolidin-2-one] | 0.00724 | 0.0167
CNCc1ccc(-c2ccnc(-c3cccc4c3CC[C@@H]4Nc3nc(OC)c(CNC)cc3C(F)(F)F)c2Cl)nc1OC [Compound 224, (S)-N-(4-(3′-chloro-6-methoxy-5-((methylamino)methyl)-[2,4′-bipyridin]-2′-yl)-2,3-dihydro-1H-inden-1-yl)-6-methoxy-5-((methylamino)methyl)-3-(trifluoromethyl)pyridin-2-amine] | 0.00822 | ≥ 10
COc1nc(-c2ccnc(-c3cccc4c3CC[C@@H]4Nc3nc(OC)c(CN[C@H]4C[C@](C)(O)C4)cc3C(F)(F)F)c2Cl)ccc1CN[C@H]1C[C@](C)(O)C1 [Compound 225, (1S,3r)-3-(((3′-chloro-2′-((S)-1-((5-((((1r,3S)-3-hydroxy-3-methylcyclobutyl)amino)methyl)-6-methoxy-3-(trifluoromethyl)pyridin-2-yl)amino)-2,3-dihydro-1H-inden-4-yl)-6-methoxy-[2,4′-bipyridin]-5-yl)methyl)amino)-1-methylcyclobutan-1-ol] | 0.0082 | ≥ 10
CNCc1ccc(-c2cccc(-c3ccnc(-c4ccc(CN5CC[C@H](C(=O)O)C5)c(OC)c4)c3Cl)c2Cl)nc1OC [Compound 226, (S)-1-(4-(3-chloro-4-(2-chloro-3-(6-methoxy-5-((methylamino)methyl)pyridin-2-yl)phenyl)pyridin-2-yl)-2-methoxybenzyl)pyrrolidine-3-carboxylic acid] | 0.00027 | 0.0627
CNCc1ccc(-c2cccc(-c3ccnc(-c4ccc(CN5CC6(CC(C(=O)O)C6)C5)c(OC)c4)c3Cl)c2Cl)nc1OC [Compound 227, 2-(4-(3-chloro-4-(2-chloro-3-(6-methoxy-5-((methylamino)methyl)pyridin-2-yl)phenyl)pyridin-2-yl)-2-methoxybenzyl)-2-azaspiro[3.3]heptane-6-carboxylic acid] | 0.00525 | 0.0313
CNCc1ccc(-c2cccc(-c3ccnc(-c4ccc(CNCC56CC(C(=O)O)(C5)C6)c(OC)c4)c3Cl)c2Cl)nc1OC [Compound 228, 3-(((4-(3-chloro-4-(2-chloro-3-(6-methoxy-5-((methylamino)methyl)pyridin-2-yl)phenyl)pyridin-2-yl)-2-methoxybenzyl)amino)methyl)bicyclo[1.1.1]pentane-1-carboxylic acid] | 0.00023 | 0.0755
COc1cc(-c2nccc(-c3cccc(-c4ccc(CNCC(=O)O)c(OC)n4)c3Cl)c2Cl)cc2c1CN(C[C@H](C)O)CC2 [Compound 229, (S)-((6-(2-chloro-3-(3-chloro-2-(2-(2-hydroxypropyl)-8-methoxy-1,2,3,4-tetrahydroisoquinolin-6-yl)pyridin-4-yl)phenyl)-2-methoxypyridin-3-yl)methyl)glycine] | 0.00113 | 0.244
COc1nc(-c2cccc(-c3ccnc(-c4ccc5c(c4)CNC5)c3Cl)c2Cl)ccc1CN1CC2(CNC(=O)C2)C1 [Compound 230, 2-((6-(2-chloro-3-(3-chloro-2-(isoindolin-5-yl)pyridin-4-yl)phenyl)-2-methoxypyridin-3-yl)methyl)-2,6-diazaspiro[3.4]octan-7-one] | 0.0108 | 0.392
COc1cc(-c2nccc(-c3ccnc(-c4cc5c(c(OC)c4)CN(C[C@@H]4CCC(=O)N4)CC5)c3Cl)c2Cl)cc2c1CN(C[C@@H]1CCC(=O)N1)CC2 [Compound 266, (5S,5'S)-5,5′-(((3,3′-Dichloro-[4,4′-bipyridine]-2,2′-diyl)bis(8-methoxy-3,4-dihydroisoquinoline-6,2(1H)-diyl))bis(methylene))bis(pyrrolidin-2-one)] | 0.0184 | 0.439
COC(=O)[C@H](CCO)NCc1ncc(-c2nccc(-c3cccc(-c4ccc(CNC[C@@H]5CCC(=O)N5)c(OC)n4)c3Cl)c2Cl)cc1OC [Compound 267, Methyl ((3-chloro-4-(2-chloro-3-(6-methoxy-5-(((((S)-5-oxopyrrolidin-2-yl)methyl)amino)methyl)pyridin-2-yl)phenyl)-5′-methoxy-[2,3′-bipyridin]-6′-yl)methyl)-L-homoserinate] | 0.00297 | 0.639
COc1cc(-c2nccc(-c3cccc(-c4ccc(CNC[C@@H]5CCC(=O)N5)c(OC)n4)c3Cl)c2Cl)cnc1CN[C@H]1CCOC1=O [Compound 268, (S)-5-((((6-(2-Chloro-3-(3-chloro-5′-methoxy-6′-((((S)-2-oxotetrahydrofuran-3-yl)amino)methyl)-[2,3′-bipyridin]-4-yl)phenyl)-2-methoxypyridin-3-yl)methyl)-amino)methyl)pyrrolidin-2-one] | 0.00146 | 0.669
COc1cc(-c2nccc(-c3ccnc(-c4cc(F)c(CNC5CCN(C(C)=O)CC5)c(OC)c4)c3Cl)c2Cl)cc(F)c1CNC1CCN(C(C)=O)CC1 [Compound 313, 1,1′-(((((3,3′-Dichloro-[4,4′-bipyridine]-2,2′-diyl)bis(2-fluoro-6-methoxy-4,1-phenylene))bis(methylene))bis(azanediyl))bis(piperidine-4,1-diyl))bis(ethan-1-one)] | 0.0046 | 0.0973
COc1cc(-c2nccc(-c3cccc(-c4ccc(CNC5CCN(C(C)=O)CC5)c(OC)n4)c3Cl)c2Cl)cnc1CNC1CCN(C(C)=O)CC1 [Compound 375, 1-(4-(((6-(3-(6′-(((1-Acetylpiperidin-4-yl)amino)methyl)-3-chloro-5′-methoxy-[2,3′-bipyridin]-4-yl)-2-chlorophenyl)-2-methoxypyridin-3-yl)methyl)amino)piperidin-1-yl)ethan-1-one] | 0.00124 | 0.0464
COc1cc(-c2nccc(-c3cccc(-c4ccc(CN5CC6(CNC(=O)C6)C5)c(OC)n4)c3Cl)c2Cl)cnc1CN1CC2(CNC(=O)C2)C1 [Compound 376, 2-((3-Chloro-4-(2-chloro-3-(6-methoxy-5-((7-oxo-2,6-diazaspiro[3.4]octan-2-yl)methyl)pyridin-2-yl)phenyl)-5′-methoxy-[2,3′-bipyridin]-6′-yl)methyl)-2,6-diazaspiro[3.4]octan-7-one] | 0.000458 | 0.0384
COc1cc(-c2nccc(-c3cccc(-c4ccc(CN5CC6(C5)CN(C(C)=O)C6)c(OC)n4)c3Cl)c2Cl)cnc1CN1CC2(C1)CN(C(C)=O)C2 [Compound 428, 1-(6-((6-(3-(6′-((6-Acetyl-2,6-diazaspiro[3.3]heptan-2-yl)methyl)-3-chloro-5′-methoxy-[2,3′-bipyridin]-4-yl)-2-chlorophenyl)-2-methoxypyridin-3-yl)methyl)-2,6-diazaspiro[3.3]heptan-2-yl)ethan-1-one] | 0.00077 | 0.0512
COc1cc(-c2nccc(-c3cccc(-c4ccc(CNC5CC6(COC6)C5)c(OC)n4)c3Cl)c2Cl)cnc1CNC1CC2(COC2)C1 (stereo not drawn) [Compound 429, N-((4-(3-(5-(((2-Oxaspiro[3.3]heptan-6-yl)amino)methyl)-6-methoxypyridin-2-yl)-2-chlorophenyl)-3-chloro-5′-methoxy-[2,3′-bipyridin]-6′-yl)methyl)-2-oxaspiro[3.3]heptan-6-amine] | 0.0041 | 0.0714
COc1cc(-c2nccc(-c3cccc(-c4ccc(CN5CC6(CCC(=O)N6)C5)c(OC)n4)c3Cl)c2Cl)cnc1CN1CC2(CCC(=O)N2)C1 [Compound 430, 2-((3-Chloro-4-(2-chloro-3-(6-methoxy-5-((6-oxo-2,5-diazaspiro[3.4]octan-2-yl)methyl)pyridin-2-yl)phenyl)-5′-methoxy-[2,3′-bipyridin]-6′-yl)methyl)-2,5-diazaspiro[3.4]octan-6-one] | 0.00035 | 0.0233
COc1cc(-c2nccc(-c3cccc(-c4ccc(CNC5CCOCC5)c(OC)n4)c3Cl)c2Cl)cnc1CNC1CCOCC1 [Compound 431, N-((6-(2-Chloro-3-(3-chloro-5′-methoxy-6′-(((tetrahydro-2H-pyran-4-yl)amino)methyl)-[2,3′-bipyridin]-4-yl)phenyl)-2-methoxypyridin-3-yl)methyl)tetrahydro-2H-pyran-4-amine] | 0.00203 | 0.106
COc1cc(-c2cccc(-c3ccnc(-c4cnc(CNC5CCN(C(C)=O)CC5)c(OC)c4)c3Cl)c2Cl)ccc1CNC1CCN(C(C)=O)CC1 [Compound 500, 1-(4-(((4-(4′-(((1-acetylpiperidin-4-yl)amino)methyl)-2-chloro-3′-methoxy-[1,1′-biphenyl]-3-yl)-3-chloro-5′-methoxy-[2,3′-bipyridin]-6′-yl)methyl)amino)piperidin-1-yl)ethan-1-one] | 0.00195 | 0.12
COc1cc(-c2cccc(-c3ccnc(-c4cnc(CN5CC6(CNC(=O)C6)C5)c(OC)c4)c3Cl)c2Cl)ccc1CN1CC2(CNC(=O)C2)C1 [Compound 501, 2-((3-Chloro-4-(2-chloro-3′-methoxy-4′-((7-oxo-2,6-diazaspiro[3.4]octan-2-yl)methyl)-[1,1′-biphenyl]-3-yl)-5′-methoxy-[2,3′-bipyridin]-6′-yl)methyl)-2,6-diazaspiro[3.4]octan-7-one] | 0.00092 | 0.0941
